Laboratory results as given in patent US20260248799A1, “COMBINATIONS OF RETINALDEHYDE DEHYDROGENASE 1 (RALDH1) INHIBITORS AND IMMUNOSTIMULATORS AND METHODS USING SAME” (The Trustees of the University of Pennsylvania, priority 2023, published 2026).

Tests used:
SNU398 human HCC cells = test: AldeRed (Aldefluor) assay in SNU398 cells; assay type: cell-based
Description: The AldeRed assay (EMD Millipore) was performed according to manufacturer's instructions to identify cells with ALDH activity. In brief, single-cell suspensions of Huh7, Huh1, SNU449, SNU398, HEP3B, PLC, Hepa 1-6, Hep55, and AL458A cultured cells or single-cell suspension generated from enzymatic digestion of tumors generated from transplantation of these cells in mice (as indicated in figure legends) were incubated with a fluorescent and non-toxic ALDH substrate (AldeRed 588-A); the fluorescent product accumulates in cells proportional to their ALDH activity. The amount of fluorescence produced is measured by flow cytometry. The ALDH inhibitor diethylaminobenzaldehyde (DEAB, provided with the AldeRed assay kit) was used as a negative control for background fluorescence assessment.
The Aldefluor assay has been used to identify and isolate cells with high ALDH activities. This assay is based on the principle that ALDH can convert the ALDH-substrate, Bodipy-aminoacetaldehyde (BAAA) into Bodipy-aminoacetate (BAA) which is retained inside the cells. BAAA is uncharged and can diffuse freely into intact viable cells, however BAA cannot cross the membrane due to its net negative charge, which makes remain in the cells and the assay buffer prevents efflux of the BAA from the cells. Therefore, the amount of BAA fluorescence in cells is proportional to ALDH activity and can be measured using a flow cytometer. A specific inhibitor of ALDH, diethylaminobenzaldehyde (DEAB), is used for background fluorescence control.

SNU398 cells = test: In vitro proliferation and viability of human HCC cell lines; assay type: cell-based; settings: SNU398, 1, 10, 100 and 1000 nM
Description: FIG. 20D: LC-MS for ATRA on Hepa1-6 (mouse HCC cell line) or SNU398 (human HCC cell line). […] Two independent experiments were performed with at least three replicates per experimental group. Unpaired t test, two-tailed. *, P<0.05; **, P<0.01; ***, P<0.001. […] Cell proliferation was measured by counting live cell numbers at each time point. […] Cell proliferation was measured by counting live cell numbers at each time point.
Cell viability was measured by flow cytometry (FCM) with 7-AAD staining (Y-axis indicates percentage of 7-AAD negative cells).
1×10^4~2×10^5 of Huh7, Huh1, Hepa 1-6, and Hep55 tumor cells were plated in triplicate in 48-well plates or 6-well plates. Viable cell numbers were counted every day for three to four days.

Monoamine Oxidase MAO-B = molecular target: T1, Monoamine Oxidase MAO-B (Homo sapiens, UniProt P27338); test: Safetyscreen: MAO-B; assay type: biochemical; settings: read-out: % Inh. Monoamine Oxidase MAO-B
T1 construct: Eurofins Cerep Panlabs (contract panel)
T1 sequence (P27338 whole entry): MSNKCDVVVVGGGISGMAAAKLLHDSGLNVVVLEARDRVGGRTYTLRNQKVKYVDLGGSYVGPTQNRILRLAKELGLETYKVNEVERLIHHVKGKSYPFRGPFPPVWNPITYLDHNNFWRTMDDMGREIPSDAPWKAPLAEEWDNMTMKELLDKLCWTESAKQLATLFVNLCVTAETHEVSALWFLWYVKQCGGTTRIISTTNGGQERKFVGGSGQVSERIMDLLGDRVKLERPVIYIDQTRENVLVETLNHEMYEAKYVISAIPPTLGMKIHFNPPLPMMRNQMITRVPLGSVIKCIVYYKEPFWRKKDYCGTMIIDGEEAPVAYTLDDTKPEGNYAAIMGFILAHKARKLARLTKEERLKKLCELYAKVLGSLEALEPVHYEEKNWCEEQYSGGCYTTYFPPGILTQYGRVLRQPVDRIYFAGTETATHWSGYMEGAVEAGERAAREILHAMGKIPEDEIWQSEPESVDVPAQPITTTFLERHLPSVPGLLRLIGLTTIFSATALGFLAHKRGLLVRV

Adrenergic α2B = molecular target: T2, Adrenergic α2B (Homo sapiens, UniProt P18089); test: Safetyscreen: Adrenergic α2B; assay type: binding; settings: read-out: % Inh. Adrenergic α2B
T2 construct: Eurofins Cerep Panlabs (contract panel)
T2 sequence (P18089 whole entry): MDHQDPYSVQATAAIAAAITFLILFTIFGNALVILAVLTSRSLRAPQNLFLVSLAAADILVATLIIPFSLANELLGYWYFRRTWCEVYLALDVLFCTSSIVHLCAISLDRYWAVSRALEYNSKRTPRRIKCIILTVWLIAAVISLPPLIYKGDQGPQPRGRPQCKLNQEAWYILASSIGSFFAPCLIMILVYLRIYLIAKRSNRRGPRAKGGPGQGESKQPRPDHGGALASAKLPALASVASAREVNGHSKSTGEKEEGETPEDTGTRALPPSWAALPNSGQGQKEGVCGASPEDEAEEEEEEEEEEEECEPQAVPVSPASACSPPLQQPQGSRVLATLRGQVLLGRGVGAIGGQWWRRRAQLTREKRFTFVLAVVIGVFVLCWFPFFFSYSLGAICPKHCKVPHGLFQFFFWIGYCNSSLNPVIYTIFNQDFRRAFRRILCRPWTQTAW

Androgen (Testosterone) = molecular target: T3, Androgen (Testosterone) (Homo sapiens, UniProt P10275); test: Safetyscreen: Androgen; assay type: binding; settings: read-out: % Inh. Androgen (Testosterone)
T3 construct: Eurofins Cerep Panlabs (contract panel)
T3 sequence (P10275 whole entry): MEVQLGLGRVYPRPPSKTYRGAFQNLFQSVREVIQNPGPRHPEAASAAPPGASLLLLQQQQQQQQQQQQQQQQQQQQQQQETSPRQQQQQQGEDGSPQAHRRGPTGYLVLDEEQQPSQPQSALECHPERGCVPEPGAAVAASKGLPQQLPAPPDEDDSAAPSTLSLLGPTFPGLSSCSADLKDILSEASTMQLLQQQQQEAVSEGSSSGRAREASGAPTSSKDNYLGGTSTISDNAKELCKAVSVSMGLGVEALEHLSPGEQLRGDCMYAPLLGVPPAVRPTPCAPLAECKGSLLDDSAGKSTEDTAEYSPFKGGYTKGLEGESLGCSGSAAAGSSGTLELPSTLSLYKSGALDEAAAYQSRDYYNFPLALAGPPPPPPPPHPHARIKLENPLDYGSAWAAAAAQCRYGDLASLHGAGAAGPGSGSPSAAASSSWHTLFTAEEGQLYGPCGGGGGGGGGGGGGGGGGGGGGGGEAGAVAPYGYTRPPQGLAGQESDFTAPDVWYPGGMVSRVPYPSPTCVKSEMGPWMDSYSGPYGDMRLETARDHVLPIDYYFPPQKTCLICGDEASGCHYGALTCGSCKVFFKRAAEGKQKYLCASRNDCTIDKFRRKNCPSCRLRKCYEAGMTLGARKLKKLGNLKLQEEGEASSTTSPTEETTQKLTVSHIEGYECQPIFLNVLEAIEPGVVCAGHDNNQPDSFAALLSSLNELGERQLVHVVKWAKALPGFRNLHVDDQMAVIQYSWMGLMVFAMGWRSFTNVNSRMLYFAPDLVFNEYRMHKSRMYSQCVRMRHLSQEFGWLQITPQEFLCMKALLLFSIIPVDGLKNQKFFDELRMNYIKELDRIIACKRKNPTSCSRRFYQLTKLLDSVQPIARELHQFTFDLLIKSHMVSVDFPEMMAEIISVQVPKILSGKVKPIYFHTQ

[1] = system: GABAA, Ro-15-1788, Hippocampus; test: Safetyscreen: GABAA, Ro-15-1788; assay type: binding, rat; settings: 10 μM
[2] = system: Glutamate, NMDA, Polyamine; test: Safetyscreen: NMDA, Polyamine; assay type: binding, rat; settings: 10 μM
Melanocortin MC1 = molecular target: T4, Melanocortin MC1 (Homo sapiens, UniProt Q01726); test: Safetyscreen: MC1; assay type: binding; settings: read-out: % Inh. Melanocortin MC1
T4 construct: purchased Eurofins Cereps Panlabs
T4 sequence (Q01726 whole entry): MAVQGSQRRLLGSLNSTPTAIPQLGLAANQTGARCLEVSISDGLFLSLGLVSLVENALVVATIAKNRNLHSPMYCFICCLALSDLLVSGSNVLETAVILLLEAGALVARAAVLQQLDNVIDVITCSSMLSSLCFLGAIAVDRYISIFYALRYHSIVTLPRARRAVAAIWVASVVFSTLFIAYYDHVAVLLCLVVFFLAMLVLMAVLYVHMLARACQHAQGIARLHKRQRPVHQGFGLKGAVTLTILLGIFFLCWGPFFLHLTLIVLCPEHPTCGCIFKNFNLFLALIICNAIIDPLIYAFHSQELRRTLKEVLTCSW

[3] = molecular target: T5, Nicotinic Acetylcholine α1, Bungarotoxin (Homo sapiens, UniProt P02708+P07510+Q07001); test: Safetyscreen: Nicotinic Acetylcholine α1; assay type: binding; settings: read-out: % Inh. Nicotinic Acetylcholine α1, Bungarotoxin
T5 construct: Eurofins Cereps Panlabs (contract panel)

Opiate κ(OP2, KOP) = molecular target: T6, Opiate κ(OP2, KOP) (Homo sapiens, UniProt P41145); test: Safetyscreen: Opiate κ; assay type: binding; settings: read-out: % Inh. Opiate κ(OP2, KOP)
T6 construct: Eurofins Cereps Panlabs (contract panel)
T6 sequence (P41145 whole entry): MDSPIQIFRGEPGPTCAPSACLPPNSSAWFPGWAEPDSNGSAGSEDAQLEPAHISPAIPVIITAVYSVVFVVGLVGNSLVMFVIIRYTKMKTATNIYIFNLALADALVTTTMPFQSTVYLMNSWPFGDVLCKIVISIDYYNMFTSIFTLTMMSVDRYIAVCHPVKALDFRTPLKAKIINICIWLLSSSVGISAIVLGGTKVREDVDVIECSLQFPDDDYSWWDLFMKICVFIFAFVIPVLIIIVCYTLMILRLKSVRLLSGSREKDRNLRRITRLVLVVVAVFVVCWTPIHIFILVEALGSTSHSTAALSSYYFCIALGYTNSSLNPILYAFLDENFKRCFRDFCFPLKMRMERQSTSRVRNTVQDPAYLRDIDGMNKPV

Potassium Channel [KATP] = molecular target: T7, Potassium Channel [KATP] (Cricetus cricetus, UniProt Q09427); test: Safetyscreen: Potassium Channel KATP; assay type: binding, hamster; settings: read-out: % Inh. Potassium Channel [KATP]
T7 construct: Eurofins Cereps Panlabs (contract panel)
T7 sequence (Q09427 whole entry): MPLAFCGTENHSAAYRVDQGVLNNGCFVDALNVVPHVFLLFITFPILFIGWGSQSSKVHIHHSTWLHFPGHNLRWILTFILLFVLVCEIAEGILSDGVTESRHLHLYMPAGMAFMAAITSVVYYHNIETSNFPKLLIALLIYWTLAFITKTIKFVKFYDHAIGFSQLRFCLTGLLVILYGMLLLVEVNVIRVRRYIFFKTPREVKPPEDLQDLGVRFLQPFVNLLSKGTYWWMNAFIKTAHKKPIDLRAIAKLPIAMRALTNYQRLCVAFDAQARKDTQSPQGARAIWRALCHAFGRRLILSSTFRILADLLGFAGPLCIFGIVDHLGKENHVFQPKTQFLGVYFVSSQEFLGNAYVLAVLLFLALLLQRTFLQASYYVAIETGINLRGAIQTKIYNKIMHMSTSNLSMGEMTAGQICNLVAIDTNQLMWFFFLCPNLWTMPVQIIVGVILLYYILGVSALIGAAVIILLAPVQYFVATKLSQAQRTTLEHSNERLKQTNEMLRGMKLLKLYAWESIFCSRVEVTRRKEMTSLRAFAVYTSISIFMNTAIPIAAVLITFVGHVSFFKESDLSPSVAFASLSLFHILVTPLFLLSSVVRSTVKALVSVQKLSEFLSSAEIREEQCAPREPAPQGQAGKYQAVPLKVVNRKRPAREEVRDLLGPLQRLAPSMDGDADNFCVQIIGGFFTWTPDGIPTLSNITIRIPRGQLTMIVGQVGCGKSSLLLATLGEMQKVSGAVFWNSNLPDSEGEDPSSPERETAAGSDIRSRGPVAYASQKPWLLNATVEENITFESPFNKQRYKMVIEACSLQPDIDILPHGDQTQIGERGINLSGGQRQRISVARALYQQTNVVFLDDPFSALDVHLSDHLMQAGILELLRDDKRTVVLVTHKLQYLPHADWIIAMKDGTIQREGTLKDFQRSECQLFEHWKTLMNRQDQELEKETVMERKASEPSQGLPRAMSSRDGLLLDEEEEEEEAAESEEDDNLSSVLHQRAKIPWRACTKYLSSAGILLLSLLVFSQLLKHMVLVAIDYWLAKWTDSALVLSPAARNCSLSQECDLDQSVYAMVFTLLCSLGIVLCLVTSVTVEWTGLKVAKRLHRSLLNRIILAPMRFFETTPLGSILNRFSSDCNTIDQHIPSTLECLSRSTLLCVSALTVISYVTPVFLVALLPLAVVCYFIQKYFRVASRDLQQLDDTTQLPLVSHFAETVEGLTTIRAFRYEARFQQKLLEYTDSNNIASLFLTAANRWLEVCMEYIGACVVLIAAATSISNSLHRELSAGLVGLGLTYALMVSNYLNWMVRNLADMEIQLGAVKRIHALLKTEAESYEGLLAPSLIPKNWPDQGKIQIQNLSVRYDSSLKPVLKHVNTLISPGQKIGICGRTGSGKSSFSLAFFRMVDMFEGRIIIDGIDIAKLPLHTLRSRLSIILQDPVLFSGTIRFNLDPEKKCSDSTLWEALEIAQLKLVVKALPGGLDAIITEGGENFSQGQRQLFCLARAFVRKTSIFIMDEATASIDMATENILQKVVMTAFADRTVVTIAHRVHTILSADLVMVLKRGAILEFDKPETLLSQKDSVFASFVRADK

[4] = molecular target: T8, Serotonin (5-Hydroxytryptamine) 5-HT2B (Homo sapiens, UniProt P41595); test: Safetyscreen: 5-HT2B; assay type: binding; settings: read-out: % Inh. Serotonin (5-Hydroxytryptamine) 5-HT2B
T8 construct: Eurofins Cereps Panlabs (contract panel)
T8 sequence (P41595 whole entry): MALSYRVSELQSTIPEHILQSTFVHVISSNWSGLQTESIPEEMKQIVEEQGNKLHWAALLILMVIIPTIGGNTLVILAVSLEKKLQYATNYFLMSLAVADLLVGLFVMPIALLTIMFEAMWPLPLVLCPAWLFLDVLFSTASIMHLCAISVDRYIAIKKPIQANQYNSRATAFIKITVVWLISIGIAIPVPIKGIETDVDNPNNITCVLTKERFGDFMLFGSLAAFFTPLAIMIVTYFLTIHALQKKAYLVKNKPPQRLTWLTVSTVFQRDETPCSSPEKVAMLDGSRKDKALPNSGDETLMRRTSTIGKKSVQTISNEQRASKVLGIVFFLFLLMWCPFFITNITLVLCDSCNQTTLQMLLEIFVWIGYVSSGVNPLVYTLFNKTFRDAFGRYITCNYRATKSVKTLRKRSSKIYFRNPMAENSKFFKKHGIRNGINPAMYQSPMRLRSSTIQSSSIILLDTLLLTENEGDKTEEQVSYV

Sodium Channel, Site 2 = test: Safetyscreen: Sodium Channel, Site 2; assay type: binding, rat; settings: 10 μM

SMILES: CS(=O)(=O)N1CCN(C(=O)c2cnc3ccc(F)cc3c2N2CCC(C#N)(c3ccccc3)CC2)CC1 [Compound C-86, 1-(6-fluoro-3-(4-(methylsulfonyl)piperazine-1-carbonyl)quinolin-4-yl)-4-phenylpiperidine-4-carbonitrile]
- RALDH activity, Aldered assay, in HCC cells (SNU398 human HCC cells; FIGS. 7-8): significantly reduced RALDH activity
- RALDH activity as detected by Aldered (Aldefluor) assay (SNU398 human HCC cells; SNU398 cells in vitro, 100 nM, DMSO control): abrogated
- HCC cell growth in vitro (SNU398 cells): did not inhibit HCC cell growth in vitro
- inhibition at 10 µM (Monoamine Oxidase MAO-B): 4%
- inhibition at 10 µM (Adrenergic α2B): 9%
- inhibition at 10 µM (Androgen (Testosterone)): 16%
- % Inh. GABAA, Ro-15-1788, Hippocampus [1]: −7%
- % Inh. Glutamate, NMDA, Polyamine [2]: 1%
- inhibition at 10 µM (Melanocortin MC1): 8%
- inhibition at 10 µM [3]: 2%
- inhibition at 10 µM (Opiate κ(OP2, KOP)): 41%
- inhibition at 10 µM (Potassium Channel [KATP]): 28%
- inhibition at 10 µM [4]: -5%
- % Inh. Sodium Channel, Site 2 (Sodium Channel, Site 2): 21%
